The record followed here is patent publication US20250188123A1, “PROTEASE INHIBITORS” (Regents of the University of Minnesota, priority 2022, published 2025).

Read-outs that look alike come from different tables or passages of the source. Where only a bound is given, the exact number is not on record here.

In the test the target is T1, human caspase-2 (Homo sapiens, UniProt P42575).
T1 construct: inferred from pET23b, XhoI reverse primer without stop codon, Ni-NTA purification) (C); made in house; host or cells: E. coli BL21(DE3)
T1 sequence (P42575 170-452): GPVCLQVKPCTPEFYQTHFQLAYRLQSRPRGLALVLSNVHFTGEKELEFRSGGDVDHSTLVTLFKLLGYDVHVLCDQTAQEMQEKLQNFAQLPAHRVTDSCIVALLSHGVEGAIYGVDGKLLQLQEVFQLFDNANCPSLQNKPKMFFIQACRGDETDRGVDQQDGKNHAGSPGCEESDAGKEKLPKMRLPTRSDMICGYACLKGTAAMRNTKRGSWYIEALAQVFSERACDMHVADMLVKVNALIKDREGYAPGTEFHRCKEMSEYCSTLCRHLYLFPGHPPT
In words: Fluorescent enzyme assay, Casp2 (AFC substrate Z-VDVAD-AFC). To be noted: for Ki (Casp3) / Ki (Casp2): selectivity Casp2 over Casp3. In kind it is biochemical. An excerpt:
Human recombinant Casp1, 6, 7, and 9 were purchased from BioVision (Milpitas/CA, USA). AFC fluorogenic substrates and control peptides (AcYVAD-CHO, AcVDVAD-CHO, AcDEVD-CHO, AcVEID-CHO, and AcLEHD-CHO) were purchased from Bachem (Torrance/CA, USA). The pET23b vector encoding human caspase-3 was a gift of Dr. Michelle Arkin at University of California, San Francisco. Expression and purification of Casp3 was guided by previously described protocols (Denault J-B, Salvesen G S., Current Protocols in Protein Science, 2002, 30(1), 21.13. 1-21.13. 15). Briefly, the plasmid was transformed into E. coli Rosetta 2 pLyss DE3 cells that were cultured at 1 L scale in shake flasks. Five hours post induction with IPTG, cells were harvested through centrifugation (4000 g for 10 minutes at 4° C.), lysed by sonication, and centrifuged again for 30 minutes at 20000 g. Supernatant was resuspended in buffer (100 mM Tris pH 8.0, 500 mM NaCl). Purification was achieved by nickel-affinity chromatography followed by ion-exchange chromatography. Protein was diluted to 0.5 mg/mL and stored at −80° C. in 100 mM Tris, pH 8.0 supplemented with 10% glycerol. The typical yield for the expression, isolation, and purification was approximately 3 mg/L. The DNA encoding human caspase-2 (hCASP2, amino acids 170-452, free of the N-terminal caspase activation and recruitment domain) open reading frame (ORF) was amplified via polymerase chain reaction (PCR) from full-length hCASP2 cDNA (Origene, Rockville, MD; Cat #SC321316) using following primers: forward, 5′-[…]-3′; reverse, 5′-[…]-3′. The PCR fragment was then cloned into the pET23b vector (Millipore Sigma, Burlington, MA), and DNA sequence was verified by classic Sanger sequencing analyses. Site-directed mutageneses were carried out using a QuikChange II XL site-directed mutagenesis kit (Agilent Technologies, Santa Clara, CA; Cat #200522) according to the manufacturer's instruction. Expression of recombinant hCASP2 was induced using 150 μM isopropyl-β-D-thiogalactopyranoside (IPTG) (Promega, Madison, WI) in the BL21(DE3) E. coli strain (Millipore Sigma) at 16° C. for 14 hours while shaking at 250 rpm. Cells were then harvested via centrifugation at 6,000 g, 4° C. for 15 minutes, followed by lysis via sonication. Proteins were initially purified using HisPur Ni-NTA resin (Thermo Fisher Scientific, Waltham, MA) followed by metal chelating chromatography (5 mL HiTrap Chelating HP columns (GE Healthcare Life Sciences, Piscataway, NJ)). Further purification was carried out using anion exchange chromatography (5 mL HiTrap Q HP columns (GE Healthcare Life Sciences)) for hCASP2. Proteins were stored in 1× phosphate-buffered saline (pH 7.4) at 10 mg/mL (concentration determined using a BCA assay (Thermo Fisher Scientific)), −80° C. until further use.
KM values were determined experimentally to be the following: Casp1: 5.9 μM; Casp2: 37.1 μM; Casp3: 7.6 μM; Casp6: 14.5 μM; Casp7: 13.8 μM; Casp9: 149.1 μM. Enzymes were diluted in buffer: 100 mM MES (pH 6.5) for Casp2 and or 100 mM HEPES (pH 7.0) for all other caspases, plus 150 mM NaCl, 0.1% CHAPS, 1.5% sucrose, 10 mM DTT. Enzyme concentrations were 0.05 U/well for Casp1, 6, and 7; 0.5 U/well for Casp9, 20 nM/well for Casp2, and 2 nM/well for Casp3. Enzyme in buffer (19 μL) was added per well in a black 384-well Corning 4514 assay plate. Test compounds were serially diluted in dimethyl sulfoxide (DMSO) and plated in duplicate into a Corning 3656 transfer plate. Test compound was added to assay plates in 0.5 μL aliquots per well and mixed 10 times using a BiomekFX (Beckman Coulter). Compound and enzyme mixture was incubated at 37° C. for 5 minutes for aldehyde warheads and 45 minutes for cyano warheads. […]

On to `CC(=O)N[C@H](C(=O)NC(CC(=O)O)C(=O)N[C@H](C(=O)N1CCc2cc(C)ccc2C1C(=O)N[C@H](C=O)CC(=O)O)C(C)C)C(C)C` (stereo in doubt) [Compound 30a, (R)-3-((S)-2-acetamido-3-methylbutanamido)-4-(((S)-1-((S)-1-(((S)-1-carboxy-3-oxopropan-2-yl)carbamoyl)-6-methyl-3,4-dihydroisoquinolin-2(1H)-yl)-3-methyl-1-oxobutan-2-yl)amino)-4-oxobutanoic acid, reference compound], for which the “Ki (Casp3) / Ki (Casp2)” value was >9. Besides, the Ki (mean ± SEM of N independent experiments, each in duplicate or triplicate, read-out: pKi ± SEM Casp 2 (converted)) is 10.5 µM.
Take `CC(=O)N[C@H](C(=O)N[C@@H](CC(=O)O)C(=O)N[C@H](C(=O)N1CCc2cc(C)ccc2[C@H]1C(=O)N[C@H](C=O)CC(=O)O)C(C)C)C(C)C` [Compound 30b, (S)-3-((S)-2-acetamido-3-methylbutanamido)-4-(((S)-1-((S)-1-(((S)-1-carboxy-3-oxopropan-2-yl)carbamoyl)-6-methyl-3,4-dihydroisoquinolin-2(1H)-yl)-3-methyl-1-oxobutan-2-yl)amino)-4-oxobutanoic acid, reference compound]: the “Ki (Casp3) / Ki (Casp2)” value was found to be 70. The “pKi ± SEM Casp 2” value (mean ± SEM of N independent experiments, each in duplicate or triplicate) is 7.89 ± 0.02.
`Cc1ccc2c(c1)CCN(C(=O)[C@@H](NC(=O)[C@H](CCCC(=O)O)NC(=O)C1Cc3ccccc3N1)C(C)C)[C@@H]2C(=O)N[C@H](C#N)CC(=O)O` (stereo partly drawn) [Compound 1, (8)-6-(((S)-1-((8)-1-(((S)-2-carboxy-1-cyanoethyl)carbamoyl)-6-methyl-3,4-dihydroisoquinolin-2(1H)-yl)-3-methyl-1-oxobutan-2-yl)amino)-5-((S)-indoline-2-carboxamido)-6-oxohexanoic acid]: the Ki was 0.00759 µM and the “Ki (Casp3) / Ki (Casp2)” value is 123. Moreover, under “Casp2 over Casp3”, the “selective versus Casp3” value was found to be 123 fold.
